From ChEMBL document CHEMBL3217439, “Deciphering intracellular targets of organochalcogen based redox catalysts” (Medchemcomm, 2012)
Calls of active or inactive are those of the source. No cut-off for these calls is given here.

What was measured:
Tubulin (Sus scrofa) [1] = target: T1, Tubulin (Sus scrofa) (UniProt P02554+P02550); assay: Binding affinity to pig brain tubulin after 2 hrs by DARTS-Western blot method; format: tissue-based
[2] = Cytotoxicity against Potorous tridactylus PtK2 cells after 18 hrs by MTT assay; format: functional, cell-based; settings: PtK2, 18 h
HUVEC [3] = assay: Cytotoxicity against HUVEC after 18 hrs by MTT assay; format: functional, cell-based; settings: Homo sapiens
A-431 [4] = assay: Cytotoxicity against human A431 cells after 18 hrs by MTT assay; format: functional, cell-based; settings: A-431, 18 h
HCT-116 = assay: Cytotoxicity against human HCT116 cells after 18 hrs by MTT assay; format: functional, cell-based; settings: HCT-116, 18 h
[5] = Cytotoxicity against human KB3-1 cells after 18 hrs by MTT assay; format: functional, cell-based; settings: KB 3-1, 18 h
L929 = assay: Cytotoxicity against mouse L929 cells after 18 hrs by MTT assay; format: functional, cell-based; settings: L929, 18 h
A-431 [6] = assay: Increase in ROS production in human A431 cells at after 1 hr by DCF assay; format: functional, cell-based
HUVEC [7] = assay: Increase in ROS production in HUVEC at after 1 hr by DCF assay; format: functional, cell-based; settings: Homo sapiens
A-431 [8] = assay: Increase in ROS production in human A431 cells at after 1 hr by DHE assay; format: functional, cell-based
HUVEC [9] = assay: Increase in ROS production in HUVEC at after 1 hr by DHE assay; format: functional, cell-based; settings: Homo sapiens
A-431 [10] = assay: Reduction in ATP level in human A431 cells assessed as cell viability after 10 mins by Cell Titer Glo luminescent assay; format: functional, cell-based
A-431 [11] = assay: Induction of apoptosis in human A431 cells assessed as caspase3/7 activation at 2.6 uM after 5 to 25 mins by luminescence assay; format: functional, cell-based
A-431 [12] = assay: Induction of apoptosis in human A431 cells at 10 ug/ml after 16 hrs using annexin V/propidium iodide by flow cytometry; format: functional, cell-based
A-431 [13] = assay: Induction of apoptosis in human A431 cells at 12 ug/ml after 16 hrs using annexin V/propidium iodide by flow cytometry; format: functional, cell-based
Escherichia coli [14] = assay: Antimicrobial activity against Escherichia coli expressing tolC after 1 to 2 days by agar diffusion assay; format: functional, organism-based
Escherichia coli [15] = assay: Antimicrobial activity against Escherichia coli A1 after 1 to 2 days by agar diffusion assay; format: functional, organism-based
Klebsiella pneumoniae = assay: Antimicrobial activity against Klebsiella pneumoniae after 1 to 2 days by agar diffusion assay; format: functional, organism-based
Pseudomonas aeruginosa = assay: Antimicrobial activity against Pseudomonas aeruginosa after 1 to 2 days by agar diffusion assay; format: functional, organism-based
Staphylococcus aureus = assay: Antimicrobial activity against Staphylococcus aureus after 1 to 2 days by agar diffusion assay; format: functional, organism-based
Micrococcus luteus = assay: Antimicrobial activity against Micrococcus luteus after 1 to 2 days by agar diffusion assay; format: functional, organism-based
Mycolicibacterium phlei = assay: Antimicrobial activity against Mycobacterium phlei after 1 to 2 days by agar diffusion assay; format: functional, organism-based
Wickerhamomyces anomalus = assay: Antimicrobial activity against Hansenula anomala after 1 to 2 days by agar diffusion assay; format: functional, organism-based
Botrytis cinerea = assay: Antimicrobial activity against Botrytis cinerea after 1 to 2 days by agar diffusion assay; format: functional, organism-based
[16] = tested on: Globisporangium debaryanum; assay: Antimicrobial activity against Pythium debaryanum after 1 to 2 days by agar diffusion assay; format: functional, organism-based
Aspergillus niger = assay: Antimicrobial activity against Aspergillus niger after 1 to 2 days by agar diffusion assay; format: functional, organism-based
Tubulin (Sus scrofa) [17] = target: T1, Tubulin (Sus scrofa); assay: (§1) Inhibition of pig brain tubulin polymerization by spectrophotometry
[18] = Inhibition of rabbit actin polymerization by spectrophotometry; set-up: species or system Oryctolagus cuniculus
Tubulin (Sus scrofa) [19] = target: T1, Tubulin (Sus scrofa); assay: Binding affinity to pig brain tubulin at IC50 after 2 hrs by DARTS-Western blot method
Oryctolagus cuniculus [20] = species on record: Oryctolagus cuniculus; assay: Binding affinity to rabbit actin polymerization at IC50 after 2 hrs by DARTS-Western blot method
[21] = Depletion of microtubules in Potorous tridactylus PtK2 cells at IC90 by microscopy; format: cell-based
[22] = Depletion of actin filaments in Potorous tridactylus PtK2 cells at IC90 by microscopy; format: cell-based
Tubulin = Tubulin (Sus scrofa, UniProt P02554+P02550); assay: as §1
Oryctolagus cuniculus [23] = species on record: Oryctolagus cuniculus; assay: Binding affinity to rabbit actin polymerization after 2 hrs by DARTS-Western blot method
Tubulin (Sus scrofa) [24] = target: T1, Tubulin (Sus scrofa); assay: Binding affinity to pig brain tubulin at IC90 after 2 hrs by DARTS-Western blot method
Oryctolagus cuniculus [25] = species on record: Oryctolagus cuniculus; assay: Binding affinity to rabbit actin polymerization at IC90 after 2 hrs by DARTS-Western blot method

T1 sequence (P02550 whole entry, looked up): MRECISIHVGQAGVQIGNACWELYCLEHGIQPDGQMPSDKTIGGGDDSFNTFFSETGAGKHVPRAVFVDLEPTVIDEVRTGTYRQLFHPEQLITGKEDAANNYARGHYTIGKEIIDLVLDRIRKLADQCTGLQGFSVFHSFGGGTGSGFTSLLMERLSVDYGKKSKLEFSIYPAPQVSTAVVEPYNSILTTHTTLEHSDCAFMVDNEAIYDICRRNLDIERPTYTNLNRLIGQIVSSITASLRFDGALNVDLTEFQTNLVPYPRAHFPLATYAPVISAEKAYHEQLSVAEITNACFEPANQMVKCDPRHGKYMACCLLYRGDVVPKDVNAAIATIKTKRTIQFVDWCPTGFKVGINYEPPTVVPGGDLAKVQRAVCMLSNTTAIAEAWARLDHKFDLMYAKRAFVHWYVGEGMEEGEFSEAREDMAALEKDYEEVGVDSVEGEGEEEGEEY
T1 sequence (P02554 whole entry, looked up): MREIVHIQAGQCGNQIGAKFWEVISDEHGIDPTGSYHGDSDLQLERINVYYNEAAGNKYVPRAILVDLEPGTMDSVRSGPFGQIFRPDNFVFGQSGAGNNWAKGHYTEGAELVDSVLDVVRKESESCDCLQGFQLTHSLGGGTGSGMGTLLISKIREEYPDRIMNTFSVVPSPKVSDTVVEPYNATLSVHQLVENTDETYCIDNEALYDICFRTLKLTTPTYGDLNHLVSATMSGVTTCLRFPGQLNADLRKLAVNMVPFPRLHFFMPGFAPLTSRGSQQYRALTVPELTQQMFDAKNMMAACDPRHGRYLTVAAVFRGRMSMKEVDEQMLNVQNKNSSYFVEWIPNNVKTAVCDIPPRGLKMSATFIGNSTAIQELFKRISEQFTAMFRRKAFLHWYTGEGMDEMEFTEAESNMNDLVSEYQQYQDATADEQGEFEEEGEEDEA

Row | SMILES | Activity (Tubulin (Sus scrofa) [1]) | IC50 [2] | IC50 (HUVEC [3]) | IC50 (A-431 [4]) | IC50 (HCT-116) | IC50 [5] | IC50 (L929) | Activity (A-431 [6]) | Activity (HUVEC [7]) | Activity (A-431 [8]) | Activity (HUVEC [9]) | Activity (A-431 [10]) | Activity (A-431 [11]) | Activity (A-431 [12]) | Activity (A-431 [13]) | Activity (Escherichia coli [14]) | Activity (Escherichia coli [15]) | Activity (Klebsiella pneumoniae) | Activity (Pseudomonas aeruginosa) | Activity (Staphylococcus aureus) | further results
1 | CC[C@@H](C)[C@H](NC(=O)[C@H]1CCCCN1C)C(=O)N(COC(=O)CC(C)C)[C@H](C[C@@H](OC(C)=O)c1nc(C(=O)N[C@@H](Cc2ccc(O)cc2)C[C@H](C)C(=O)O)cs1)C(C)C | Active | – | – | – | – | – | – | – | – | – | – | – | – | – | – | – | – | – | – | – | –
2 | O=C1C([Te]c2ccccc2)=C([Te]c2ccccc2)C(=O)c2ccccc21 | – | 7.2 µM | 5.1 µM | 4.4 µM | 5.4 µM | 0.25 µM | 5.8 µM | Dose-dependent effect | Dose-dependent effect | Dose-dependent effect | Dose-dependent effect | Active | Active | Active | Active | Active | Active | Active | inactive | Active | Activity (Micrococcus luteus): Active; Activity (Mycolicibacterium phlei): Active; Activity (Wickerhamomyces anomalus): Active; Activity (Botrytis cinerea): Active; Activity [16]: Active; Activity (Aspergillus niger): Active; inhibition (Tubulin (Sus scrofa) [17]): inactive; IC50 [18]: 30 µM; Activity (Tubulin (Sus scrofa) [19]): inactive; Activity (Oryctolagus cuniculus [20]): Active; Activity [21]: inactive; Activity [22]: Active
3 | COC1CC(O)/C=C/C=C/C=C\C(C)C(C(C)C(O)CC(C)O)OC(=O)/C=C/C=C/C=C/C(C)=C/C(C)C(O[C@H]2O[C@H](C)[C@@H](O)[C@H](OC)[C@H]2OC)/C=C\C=C\c2coc(n2)C1C (stereo partly specified) | – | – | – | – | – | – | – | – | – | – | – | – | – | – | – | – | – | – | – | – | Activity (Oryctolagus cuniculus [20]): Active
4 | CC1=C([Te]c2ccccc2)C(=O)c2ccccc2C1=O | Dose-dependent effect | 9 µM | 9.5 µM | 5 µM | 5.3 µM | 1.3 µM | 11 µM | Dose-dependent effect | Dose-dependent effect | Dose-dependent effect | Dose-dependent effect | Active | Active | Active | Active | Active | Active | Active | inactive | Active | Activity (Micrococcus luteus): Active; Activity (Mycolicibacterium phlei): Active; Activity (Wickerhamomyces anomalus): Active; Activity (Botrytis cinerea): Active; Activity [16]: Active; Activity (Aspergillus niger): Active; IC50 (Tubulin): 15 µM; IC50 [18]: 30 µM; Activity (Oryctolagus cuniculus [23]): Dose-dependent effect; Activity (Tubulin (Sus scrofa) [24]): Active; Activity (Oryctolagus cuniculus [25]): Active; Activity [21]: Active; Activity [22]: Active
